Where a name gives a salt, the structure may show the parent alone.
Molecular target: T1, Nav1.7 (or SCN9A) channel (Homo sapiens, UniProt Q15858)
T1 construct: expressed in transfected cells
Test: Nav1.7 (hSCN9A) PatchXpress electrophysiology in HEK cells
Type: cell-based
Conditions: PatchXpress platform; HEK cells stably expressing hSCN9A; held at V1/2 of inactivation; calculated from single point % inhibition; read-out: Nav1.7 EIC50 (estimated IC-50)
Procedure: The ability of the compounds of formula (I) to block the Nav1.7 (or SCN9A) channel were measured using the assay described below.
Human Embryonic Kidney (HEK) cells were transfected with an hSCN9A construct using lipofectamine reagent (Invitrogen), using standard techniques. Cells stably expressing the hSCN9A constructs were identified by their resistance to G-418 (400 μg/ml). Clones were screened for expression using the whole-cell voltage-clamp technique.
HEK cells stably transfected with hSCN9A were maintained in DMEM medium supplemented with 10% heat-inactivated fetal bovine serum and 400 µg/ml G-418 in an incubator at 37° C. with a humidified atmosphere of 10% CO2. For HTS, cells were harvested from flasks by trypsinization and replated in an appropriate multi-well plate (typically 96 or 384 wells/plate) such that confluence would be achieved within 24 hours of plating. For electrophysiological studies, cells were removed from the culture flask by brief trypsinization and re-plated at low density onto glass cover slips. Cells were typically used for electrophysiological experiments within 24 to 72 hours after plating.
Cover slips containing HEK cells expressing hSCN9A were placed in a bath on the stage of an inverted microscope and perfused (approximately 1 ml/minutes) with extracellular solution of the following composition: 138 mM NaCl, 2 mM CaCl2, 5.4 mM KCl, 1 mM MgCl2, 10 mM glucose, and 10 mM HEPES, pH 7.4, with NaOH. […] The osmolarity of the extracellular and intracellular solutions was 300 mOsm/kg and 295 mOsm/kg, respectively. All recordings were made at room temperature (22-24° C.) using AXOPATCH 200B amplifiers and PCLAMP software (Axon Instruments, Burlingame, Calif.).
hSCN9A currents in HEK cells were measured using the whole-cell configuration of the patch-clamp technique (Hamill et al., 1981). Uncompensated series resistance was typically 2 to 5 mega ohms and >85% series resistance compensation was routinely achieved. As a result, voltage errors were negligible and no correction was applied. Current records were acquired at 20 to 50 KHz and filtered at 5 to 10 KHz.
HEK cells stably transfected with hSCN9A were viewed under Hoffman contrast optics and placed in front of an array of flow pipes emitting either control or compound-containing extracellular solutions. All compounds were dissolved in dimethyl sulfoxide to make 10 mM stock solutions, which were then diluted into extracellular solution to attain the final concentrations desired. […] The voltage-dependence of inactivation was determined by applying a series of depolarizing prepulses (8 sec long in 10 mV increments) from a negative holding potential. The voltage was then immediately stepped to 0 mV to assess the magnitude of the sodium current. Currents elicited at 0 mV were plotted as a function of prepulse potential to allow estimation of the voltage at which 50% of the channels were inactivated (midpoint of inactivation or V1/2). Compounds were tested for their ability to inhibit hSCN9A sodium channels by activating the channel with a 20 msec voltage step to 0 mV following an 8 second conditioning prepulse to the empirically determined V1/2. Compound effect (% inhibition) was determined by difference in current amplitude before and after application of test compounds. For ease of comparison, “estimated IC-50” (EIC50) values were calculated from single point electrophysiology data by the following equation, (tested concentration, uM)×(100-% inhibition/% inhibition). Inhibition values <20% and >80% were excluded from the calculation.
Electrophysiological assays were conducted with PatchXpress 7000 hardware and associated software (Molecular Devices Corp). All assay buffers and solutions were identical to those used in conventional whole-cell voltage clamp experiments described above. hSCN9A cells were grown as above to 50%-80% confluency and harvested by trypsinization. […]

T1 sequence (Q15858 whole entry): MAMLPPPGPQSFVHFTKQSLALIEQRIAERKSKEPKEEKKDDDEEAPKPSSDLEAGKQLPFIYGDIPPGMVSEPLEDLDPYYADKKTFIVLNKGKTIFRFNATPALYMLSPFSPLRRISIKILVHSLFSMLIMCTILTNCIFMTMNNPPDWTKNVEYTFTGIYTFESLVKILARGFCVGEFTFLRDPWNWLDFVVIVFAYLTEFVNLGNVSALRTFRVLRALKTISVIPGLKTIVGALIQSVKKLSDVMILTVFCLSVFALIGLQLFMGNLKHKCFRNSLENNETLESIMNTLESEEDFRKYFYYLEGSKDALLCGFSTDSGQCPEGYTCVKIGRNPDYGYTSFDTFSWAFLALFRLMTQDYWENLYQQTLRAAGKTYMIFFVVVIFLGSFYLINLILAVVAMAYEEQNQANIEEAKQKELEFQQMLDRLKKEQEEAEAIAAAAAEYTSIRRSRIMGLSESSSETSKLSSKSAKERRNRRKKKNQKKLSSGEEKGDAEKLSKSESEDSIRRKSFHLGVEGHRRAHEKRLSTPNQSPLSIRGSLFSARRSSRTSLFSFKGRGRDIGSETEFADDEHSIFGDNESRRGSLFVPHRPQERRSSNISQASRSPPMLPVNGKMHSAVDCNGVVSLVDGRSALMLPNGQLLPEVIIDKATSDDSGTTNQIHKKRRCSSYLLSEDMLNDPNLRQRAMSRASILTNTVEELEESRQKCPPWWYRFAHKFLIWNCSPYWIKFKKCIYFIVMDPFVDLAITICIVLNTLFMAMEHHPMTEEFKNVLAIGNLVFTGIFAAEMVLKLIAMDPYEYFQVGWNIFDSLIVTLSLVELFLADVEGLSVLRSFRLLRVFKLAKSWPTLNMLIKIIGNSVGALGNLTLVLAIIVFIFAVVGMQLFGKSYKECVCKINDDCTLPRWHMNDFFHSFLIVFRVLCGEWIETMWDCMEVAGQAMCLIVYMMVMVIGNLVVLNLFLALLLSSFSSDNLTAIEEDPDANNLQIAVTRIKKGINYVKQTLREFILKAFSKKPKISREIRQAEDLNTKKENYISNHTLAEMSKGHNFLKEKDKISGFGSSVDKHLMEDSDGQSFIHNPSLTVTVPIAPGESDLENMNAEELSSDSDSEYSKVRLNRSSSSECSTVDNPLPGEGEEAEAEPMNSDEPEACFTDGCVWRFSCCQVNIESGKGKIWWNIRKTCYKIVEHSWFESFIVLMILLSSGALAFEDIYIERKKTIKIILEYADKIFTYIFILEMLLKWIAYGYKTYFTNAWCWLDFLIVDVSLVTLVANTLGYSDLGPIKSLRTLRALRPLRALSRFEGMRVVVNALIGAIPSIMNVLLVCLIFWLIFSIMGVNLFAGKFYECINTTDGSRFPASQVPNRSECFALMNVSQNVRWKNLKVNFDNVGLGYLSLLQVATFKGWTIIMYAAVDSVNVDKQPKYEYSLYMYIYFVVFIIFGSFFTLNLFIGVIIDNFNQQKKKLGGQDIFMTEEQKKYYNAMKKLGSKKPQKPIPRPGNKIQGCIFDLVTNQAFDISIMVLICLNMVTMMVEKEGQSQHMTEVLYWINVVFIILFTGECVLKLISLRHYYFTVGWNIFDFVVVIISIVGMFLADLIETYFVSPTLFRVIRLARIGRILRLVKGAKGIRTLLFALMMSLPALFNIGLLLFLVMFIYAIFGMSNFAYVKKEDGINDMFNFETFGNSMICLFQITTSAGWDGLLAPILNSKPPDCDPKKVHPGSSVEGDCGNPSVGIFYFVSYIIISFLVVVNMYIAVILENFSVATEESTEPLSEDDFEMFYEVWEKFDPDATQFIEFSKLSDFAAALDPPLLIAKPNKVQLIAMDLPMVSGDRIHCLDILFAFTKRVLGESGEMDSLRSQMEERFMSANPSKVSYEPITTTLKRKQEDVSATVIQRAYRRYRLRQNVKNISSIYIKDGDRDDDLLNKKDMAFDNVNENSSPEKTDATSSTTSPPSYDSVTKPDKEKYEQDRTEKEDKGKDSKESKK

| IC50 [nM] | Structure (SMILES) |
| --- | --- |
| 1.3 | O=S(=O)(Nc1nncs1)c1cc(Cl)c(Oc2ccc(-c3cccc(C(F)(F)F)c3)cc2-c2ccnnc2)cc1F [Example 5] |
| 23 | O=S(=O)(Nc1nncs1)c1cc(Cl)c(Oc2ccc(-c3ccc(C(F)(F)F)nc3)cc2-c2ccnnc2)cc1F [Example 30, 5-Chloro-2-fluoro-4-{2-(pyridazin-4-yl)-4-[6-(trifluoromethyl)pyridin-3-yl]phenoxy}-N-(1,3,4-thiadiazol-2-yl)benzenesulfonamide] |
| 0.8 | O=S(=O)(Nc1nncs1)c1cc(Cl)c(Oc2ccc(-c3ccc(Cl)c(C(F)(F)F)c3)cc2-c2ccnnc2)cc1F [Example 29, 5-Chloro-4-{[4′-chloro-3-(pyridazin-4-yl)-3′-(trifluoromethyl)biphenyl-4-yl]oxy}-2-fluoro-N-(1,3,4-thiadiazol-2-yl)benzenesulfonamide] |
| 53 | N#Cc1cc(S(=O)(=O)Nc2nncs2)ccc1Oc1ccc(-c2ccccc2)cc1-c1ccnnc1 [Example 10, 3-Cyano-4-[(3-Pyridazin-4-ylbiphenyl-4-yl)oxy]-N-1,3,4-thiadiazol-2-ylbenzenesulfonamide] |
| 7.7 | O=S(=O)(Nc1nncs1)c1cc(Cl)c(Oc2ccc(-c3ccccc3)cc2-c2ccnnc2)cc1F [Example 11, 5-Chloro-2-fluoro-4-[(3-pyridazin-4-ylbiphenyl-4-yl)oxy]-N-1,3,4-thiadiazol-2-ylbenzenesulfonamide] |
| 16 | O=S(=O)(Nc1nncs1)c1cc(Cl)c(Oc2ccc(-c3ccnc(C(F)(F)F)c3)cc2-c2ccnnc2)cc1F [Example 33] |
| 12 | O=S(=O)(Nc1nncs1)c1cc(Cl)c(Oc2cc(-c3ccc(F)cc3)c(Cl)cc2-c2ccnnc2)cc1F [Example 37, 5-Chloro-4-[(6-chloro-4′-fluoro-4-pyridazin-4-ylbiphenyl-3-yl)oxy]-2-fluoro-N-1,3,4-thiadiazol-2-ylbenzenesulfonamide] |
| 0.9 | O=S(=O)(Nc1nncs1)c1cc(Cl)c(Oc2cc(Cl)c(-c3ccccc3F)cc2-c2ccnnc2)cc1F [Example 27, 5-Chloro-4-{[2-chloro-2′-fluoro-5-(pyridazin-4-yl)biphenyl-4-yl]oxy}-2-fluoro-N-(1,3,4-thiadiazol-2-yl)benzenesulfonamide] |
| 7.7 | N#Cc1cccc(-c2ccc(Oc3cc(F)c(S(=O)(=O)Nc4nncs4)cc3Cl)c(-c3ccnnc3)c2)c1 [Example 39, 5-chloro-4-[(3′-cyano-3-pyridazin-4-ylbiphenyl-4-yl)oxy]-2-fluoro-N-1,3,4-thiadiazol-2-ylbenzenesulfonamide] |

The next lines start with the compound.

| Structure (SMILES) | IC50 [nM] |
| --- | --- |
| O=S(=O)(Nc1ncccn1)c1cc(Cl)c(Oc2ccc(-c3ccc(C(F)(F)F)cc3)cc2-c2ccnnc2)cc1F [Example 2, 5-Chloro-2-fluoro-4-{[3-pyridazin-4-yl-4′-(trifluoromethyl)biphenyl-4-yl]oxy}-N-pyrimidin-2-ylbenzenesulfonamide] | 8.1 |
| CNCc1ccccc1-c1ccc(Oc2ccc(S(=O)(=O)Nc3nccs3)cc2C#N)c(-c2ccnn2C)c1 [Example 23, 3-Cyano-4-({2′-[(methylamino)methyl]-3-(1-methyl-1H-pyrazol-5-yl)biphenyl-4-yl}oxy)-N-(1,3-thiazol-2-yl)benzenesulfonamide, trifluoroacetate salt] | 5.1 |
| O=S(=O)(Nc1nncs1)c1cc(Cl)c(Oc2cc(-c3ccccc3F)c(Cl)cc2-c2ccnnc2)cc1F [Example 38, 5-Chloro-4-[(6-chloro-2′-fluoro-4-pyridazin-4-ylbiphenyl-3-yl)oxy]-2-fluoro-N-1,3,4-thiadiazol-2-ylbenzenesulfonamide] | 18 |
| N#Cc1cccc(-c2ccc(Oc3cc(F)c(S(=O)(=O)Nc4nncs4)cc3Cl)c(-c3c[nH]nc3N)c2)c1 [Example 32, 4-{[3-(5-Amino-1H-pyrazol-4-yl)-3′-cyanobiphenyl-4-yl]oxy}-5-chloro-2-fluoro-N-(1,3,4-thiadiazol-2-yl)benzenesulfonamide] | 5.3 |
| O=S(=O)(Nc1cccnn1)c1ccc(Oc2ccc(-c3ccc(C(F)(F)F)cc3)cc2-c2ccnnc2)c(Cl)c1 [Example 3, 3-Chloro-N-pyridazin-3-yl-4-{[3-pyridazin-4-yl-4′-(trifluoromethyl)biphenyl-4-yl]oxy}benzenesulfonamide] | 31 |
| N#Cc1cc(S(=O)(=O)Nc2ncns2)ccc1Oc1ccc(-c2cccc(C(F)(F)F)c2)cc1-c1ccnnc1 [Example 1, 3-Cyano-4-{[3-pyridazin-4-yl-3′-(trifluoromethyl)biphenyl-4-yl]oxy}-N-1,2,4-thiadiazol-5-ylbenzenesulfonamide] | 1.8 |
| COc1ccccc1-c1ccc(Oc2ccc(S(=O)(=O)Nc3nccs3)cc2C#N)c(-c2ccnn2C)c1 [Example 19, 3-Cyano-4-{[2′-methoxy-3-(1-methyl-1H-pyrazol-5-yl)biphenyl-4-yl]oxy}-N-(1,3-thiazol-2-yl)benzenesulfonamide] | 11 |
| O=S(=O)(Nc1ccncn1)c1cc(Cl)c(Oc2ccc(-c3ccc(C(F)(F)F)cc3)cc2-c2ccnc(N3CCNCC3)c2)cc1F [Example 35, 5-Chloro-2-fluoro-4-({3-[2-(piperazin-1-yl)pyridin-4-yl]-4′-(trifluoromethyl)biphenyl-4-yl}oxy)-N-(pyrimidin-4-yl)benzenesulfonamide hydrochloride salt] | 2.2 |
| N#Cc1cc(S(=O)(=O)Nc2ncns2)ccc1Oc1ccc(-c2ccccc2)cc1-c1ccnnc1 [Example 12, 3-Cyano-4-[(3-pyridazin-4-ylbiphenyl-4-yl)oxy]-N-1,2,4-thiadiazol-5-ylbenzenesulfonamide] | 1.9 |
| Cn1nccc1-c1cc(-c2ccccc2)ccc1Oc1ccc(S(=O)(=O)Nc2ncc(F)s2)cc1C#N [Example 15, 3-Cyano-N-(5-fluoro-1,3-thiazol-2-yl)-4-{[3-(1-methyl-1H-pyrazol-5-yl)biphenyl-4-yl]oxy}benzenesulfonamide] | 6 |
| COc1cccc(-c2ccc(Oc3ccc(S(=O)(=O)Nc4nccs4)cc3C#N)c(-c3ccnn3C)c2)c1 [Example 18, 3-Cyano-4-{[3′-methoxy-3-(1-methyl-1H-pyrazol-5-yl)biphenyl-4-yl]oxy}-N-(1,3-thiazol-2-yl)benzenesulfonamide] | 18 |
| Cn1nccc1-c1cc(-c2cccc(CN)c2)ccc1Oc1ccc(S(=O)(=O)Nc2nccs2)cc1C#N [Example 21, 4-{[3′-(Aminomethyl)-3-(1-methyl-1H-pyrazol-5-yl)biphenyl-4-yl]oxy}-3-cyano-N-(1,3-thiazol-2-yl)benzenesulfonamide, hydrochloride salt] | 100 |
| CN1CC(n2nccc2-c2cc(-c3ccccc3C(F)(F)F)ccc2Oc2cc(F)c(S(=O)(=O)Nc3nncs3)cc2Cl)C1 [Example 13, 5-Chloro-2-fluoro-4-({3-[1-(1-methylazetidin-3-yl)-1H-pyrazol-5-yl]-2′-(trifluoromethyl)biphenyl-4-yl}oxy)-N-1,3,4-thiadiazol-2-ylbenzenesulfonamide] | 2.2 |
| Cn1nccc1-c1cc(-c2ccccc2)ccc1Oc1ccc(S(=O)(=O)Nc2ccc(F)cn2)cc1C#N [Example 20, 3-Cyano-N-(5-fluoropyridin-2-yl)-4-{[3-(1-methyl-1H-pyrazol-5-yl)biphenyl-4-yl]oxy}benzenesulfonamide] | 240 |
| N#Cc1cc(S(=O)(=O)Nc2ncns2)ccc1Oc1ccc(-c2ccc(C(F)(F)F)cc2)cc1-c1ccnnc1 [Example 7, 3-Cyano-4-{[3-pyridazin-4-yl-4′-(trifluoromethyl)biphenyl-4-yl]oxy}-N-1,2,4-thiadiazol-5-ylbenzenesulfonamide] | 1.2 |
| Cn1nccc1-c1cc(-c2ccccc2)ccc1Oc1ccc(S(=O)(=O)Nc2nccs2)cc1F [Example 8, 3-Fluoro-4-{[3-(1-methyl-1H-pyrazol-5-yl)biphenyl-4-yl]oxy}-N-1,3-thiazol-2-ylbenzenesulfonamide] | 32 |
